For assay [1], the target named is GABA-A receptor; anion channel. As to the kind of experiment: Displacement of [3H]flunitrazepam from GABAA central benzodiazepine receptor in Wistar rat brain membrane without cerebellum measured after 60 mins by scintillation counting analysis. It counts as cell membranes.
The target of assay [2] is GABA-A receptor; anion channel (Rattus norvegicus) (UniProt O09028+P15431+P18506+P18508+P19969+P20236+P23574+P23576+P28471+P28473+P30191+P62813+P63079+P63138+Q91ZM7+Q9ES14). As to the kind of experiment: Displacement of [3H]flunitrazepam from GABAA central benzodiazepine receptor in Wistar rat brain membrane without cerebellum measured after 60 mins by scintillation counting analysis relative to control. It counts as cell membranes.

IC50 and inhibition data for 4 compounds are collected here from ChEMBL document CHEMBL5120840, “Axial chirality and affinity at the GABAA receptor of triazolobenzodiazepines” (Bioorg Med Chem, 2022).

Molecules are shown by their SMILES. Where “and” joins values, the source holds several entries; their conditions need not be identical. Equal values may be shown once.

Take `Cc1cc(Cl)cc2c1-n1c(C)nnc1CN=C2c1ccccc1Cl`: the IC50 in assay [1] is 10.9 nM and 34 nM. Besides, the inhibition in assay [2] is less than 50%.

As for `Cc1cc(Cl)cc2c1-n1cnnc1CN=C2c1ccccc1Cl`, the IC50 in assay [1] worked out at 23 nM.

Take `Clc1ccc2c(c1)C(c1ccccc1Cl)=NCc1nncn1-2`: the IC50 in assay [1] was determined as 1.94 nM.

As to `Cc1cc(Cl)cc2c1-n1c(C)nnc1CN=C2c1ccccc1`, the half-maximal inhibitory concentration (IC50) in assay [1] was 210 nM and 430 nM. The compound also had an inhibition in assay [2] of less than 50%.
